molecular target: T1, PLK1 (Homo sapiens, UniProt P53350); test: Biochemical Characterization Assay: HTRF kinase assay, GST-PLK1 phosphorylation of GST-p53; details: GST-PLK1, GST-p53 substrate
T1 construct: Full-length, active GST-PLK1 is purified from Sf9 insect cells; made in house; host or cells: Sf9 insect cells
Summary of the method: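 HTRF read-out of p53 phosphorylation: after EDTA stop, anti-phospho-p53 antibody bound 30 min at 37 °C in HEPES pH 7 buffer, with Eu-anti-rabbit/APC-anti-GST detection. Kinase step used full-length Sf9-expressed GST-PLK1 (3 ug/mL) and E. coli GST-p53 substrate, 35 min at 37 °C.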

T1 sequence (P53350 whole entry): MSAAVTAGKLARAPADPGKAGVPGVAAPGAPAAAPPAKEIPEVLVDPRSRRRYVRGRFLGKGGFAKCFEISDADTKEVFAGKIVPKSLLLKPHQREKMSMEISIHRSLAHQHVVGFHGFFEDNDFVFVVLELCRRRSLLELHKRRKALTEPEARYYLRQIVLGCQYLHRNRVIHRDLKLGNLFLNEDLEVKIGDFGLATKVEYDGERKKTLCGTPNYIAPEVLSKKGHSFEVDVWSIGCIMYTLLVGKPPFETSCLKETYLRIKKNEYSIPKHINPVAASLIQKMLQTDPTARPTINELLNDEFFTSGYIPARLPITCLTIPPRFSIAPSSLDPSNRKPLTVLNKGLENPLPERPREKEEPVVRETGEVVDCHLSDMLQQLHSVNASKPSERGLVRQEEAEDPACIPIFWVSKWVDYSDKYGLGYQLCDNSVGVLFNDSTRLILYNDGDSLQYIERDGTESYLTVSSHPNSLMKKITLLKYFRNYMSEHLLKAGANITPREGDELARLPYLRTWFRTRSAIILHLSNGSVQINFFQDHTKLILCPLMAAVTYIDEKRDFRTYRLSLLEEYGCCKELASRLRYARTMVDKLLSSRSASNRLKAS

Row | Compound | IC50 [nM]
1 | CCOc1cc(C(=O)NC)ccc1Nc1ncc2c(n1)N(C1CCCC1)CC(F)(F)C(=O)N2C [Example I-220, 4-(9-cyclopentyl-7,7-difluoro-5-methyl-6-oxo-6,7,8,9-tetrahydro-5H-pyrimido[4,5-b][1,4]diazepin-2-ylamino)-3-ethoxy-N-methyl-benzamide] | 1 to 50
2 | CCOc1cc(C(=O)NC2CCN(C(=O)OC(C)(C)C)CC2)ccc1Nc1ncc2c(n1)N(C1CCCC1)CC(F)(F)C(=O)N2C [Example I-221, 4-[4-(9-cyclopentyl-7,7-difluoro-5-methyl-6-oxo-6,7,8,9-tetrahydro-5H-pyrimido[4,5-b][1,4]diazepin-2-ylamino)-3-ethoxy-benzoylamino]-piperidine-1-carboxylic acid tert-butyl ester] | 51 to 500
3 | CCOc1cc(C(=O)NC2CCNCC2)ccc1Nc1ncc2c(n1)N(C1CCCC1)CC(F)(F)C(=O)N2C [Example I-222, 4-(9-cyclopentyl-7,7-difluoro-5-methyl-6-oxo-6,7,8,9-tetrahydro-5H-pyrimido[4,5-b][1,4]diazepin-2-ylamino)-3-ethoxy-N-piperidin-4-yl-benzamide] | 1 to 50
4 | CCOc1cc(C(N)=O)ccc1Nc1ncc2c(n1)N(C1CCCC1)CC(F)(F)C(=O)N2C [Example I-223, 4-(9-cyclopentyl-7,7-difluoro-5-methyl-6-oxo-6,7,8,9-tetrahydro-5H-pyrimido[4,5-b][1,4]diazepin-2-ylamino)-3-ethoxy-benzamide] | 1 to 50
5 | CCN1CCC(NC(=O)c2ccc(Nc3ncc4c(n3)N(C3CCCC3)CC(F)(F)C(=O)N4C)c(F)c2)CC1 [Example I-224, 4-(9-cyclopentyl-7,7-difluoro-5-methyl-6-oxo-6,7,8,9-tetrahydro-5H-pyrimido[4,5-b][1,4]diazepin-2-ylamino)-N-(1-ethyl-piperidin-4-yl)-3-fluoro-benzamidemide] | 1 to 50
6 | CN1C(=O)C(F)(F)CN(C2CCCC2)c2nc(Nc3ccc(C(=O)NC4CCOCC4)cc3F)ncc21 [Example I-225, 4-(9-cyclopentyl-7,7-difluoro-5-methyl-6-oxo-6,7,8,9-tetrahydro-5H-pyrimido[4,5-b][1,4]diazepin-2-ylamino)-3-fluoro-N-(tetrahydro-pyran-4-yl)-benzamide] | 1 to 50
7 | CNC(=O)c1ccc(Nc2ncc3c(n2)N(C2CCCC2)CC(F)(F)C(=O)N3C)c(F)c1 [Example I-228, 4-(9-cyclopentyl-7,7-difluoro-5-methyl-6-oxo-6,7,8,9-tetrahydro-5H-pyrimido[4,5-b][1,4]diazepin-2-ylamino)-3-fluoro-N-methyl-benzamide] | 1 to 50
8 | CN1C(=O)C(F)(F)CN(C2CCCC2)c2nc(Nc3ccc(C(=O)NC4CCN(C(=O)OC(C)(C)C)CC4)cc3F)ncc21 [Example I-229, 4-[4-(9-cyclopentyl-7,7-difluoro-5-methyl-6-oxo-6,7,8,9-tetrahydro-5H-pyrimido[4,5-b][1,4]diazepin-2-ylamino)-3-fluoro-benzoylamino]-piperidine-1-carboxylic acid tert-butyl ester] | 1 to 50
9 | CN1C(=O)C(F)(F)CN(C2CCCC2)c2nc(Nc3ccc(C(=O)NC4CCNCC4)cc3F)ncc21 [Example I-230, 4-(9-cyclopentyl-7,7-difluoro-5-methyl-6-oxo-6,7,8,9-tetrahydro-5H-pyrimido[4,5-b][1,4]diazepin-2-ylamino)-3-fluoro-N-piperidin-4-yl-benzamide] | 1 to 50
10 | CN1C(=O)C(F)(F)CN(C2CCCC2)c2nc(Nc3ccc(C(N)=O)cc3F)ncc21 [Example I-231, 4-(9-cyclopentyl-7,7-difluoro-5-methyl-6-oxo-6,7,8,9-tetrahydro-5H-pyrimido[4,5-b][1,4]diazepin-2-ylamino)-3-fluoro-benzamide] | 1 to 50
11 | CN1C(=O)C(F)(F)CN(C2CCCC2)c2nc(Nc3cc(F)c(C(=O)NC4CCN(C(=O)OC(C)(C)C)CC4)cc3F)ncc21 [Example I-239, 4-[4-(9-cyclopentyl-7,7-difluoro-5-methyl-6-oxo-6,7,8,9-tetrahydro-5H-pyrimido[4,5-b][1,4]diazepin-2-ylamino)-2,5-difluoro-benzoylamino]-piperidine-1-carboxylic acid tert-butyl ester] | 51 to 500
12 | CN1CCC(NC(=O)c2ccc(Nc3ncc4c(n3)N(C3CCCC3)CC(F)(F)C(=O)N4C)c(F)c2F)CC1 [Example I-243] | 1 to 50
13 | CCN1CCC(NC(=O)c2ccc(Nc3ncc4c(n3)N(C3CCCC3)CC(F)(F)C(=O)N4C)c(F)c2F)CC1 [Example I-244] | 1 to 50
14 | COc1cc(C(=O)O)ccc1Nc1ncc2c(n1)N(C1CCCCC1)CC(F)(F)C(=O)N2C [Example I-246, 4-(9-cyclohexyl-7,7-difluoro-5-methyl-6-oxo-6,7,8,9-tetrahydro-5H-pyrimido[4,5-b][1,4]diazepin-2-ylamino)-3-methoxy-benzoic acid] | 1 to 50
15 | COc1cc(C(=O)NC2CCN(C)CC2)ccc1Nc1ncc2c(n1)N(C1CCCCC1)CC(F)(F)C(=O)N2C [Example I-247, 4-(9-cyclohexyl-7,7-difluoro-5-methyl-6-oxo-6,7,8,9-tetrahydro-5H-pyrimido[4,5-b][1,4]diazepin-2-ylamino)-3-methoxy-N-(1-methyl-piperidin-4-yl)-benzamide] | 1 to 50

Further lines, results first:

Row | IC50 [nM] | Compound
16 | 1 to 50 | CCOc1cc(C(=O)NCCN(C)C)ccc1Nc1ncc2c(n1)N(C1CCCC1)CC(F)(F)C(=O)N2C [Example I-218, 4-(9-cyclopentyl-7,7-difluoro-5-methyl-6-oxo-6,7,8,9-tetrahydro-5H-pyrimido[4,5-b][1,4]diazepin-2-ylamino)-N-(2-dimethylamino-ethyl)-3-ethoxy-benzamide]
17 | 1 to 50 | CCOc1cc(C(=O)NCCCN(C)C)ccc1Nc1ncc2c(n1)N(C1CCCC1)CC(F)(F)C(=O)N2C [Example I-219, 4-(9-cyclopentyl-7,7-difluoro-5-methyl-6-oxo-6,7,8,9-tetrahydro-5H-pyrimido[4,5-b][1,4]diazepin-2-ylamino)-N-(3-dimethylamino-propyl)-3-ethoxy-benzamide]
18 | 1 to 50 | CN(C)CCNC(=O)c1ccc(Nc2ncc3c(n2)N(C2CCCC2)CC(F)(F)C(=O)N3C)c(F)c1 [Example I-226, 4-(9-cyclopentyl-7,7-difluoro-5-methyl-6-oxo-6,7,8,9-tetrahydro-5H-pyrimido[4,5-b][1,4]diazepin-2-ylamino)-N-(2-dimethylamino-ethyl)-3-fluoro-benzamide]
19 | 1 to 50 | CN(C)CCCNC(=O)c1ccc(Nc2ncc3c(n2)N(C2CCCC2)CC(F)(F)C(=O)N3C)c(F)c1 [Example I-227, 4-(9-cyclopentyl-7,7-difluoro-5-methyl-6-oxo-6,7,8,9-tetrahydro-5H-pyrimido[4,5-b][1,4]diazepin-2-ylamino)-N-(3-dimethylamino-propyl)-3-fluoro-benzamide]
20 | 1 to 50 | CN1CCC(NC(=O)c2cc(F)c(Nc3ncc4c(n3)N(C3CCCC3)CC(F)(F)C(=O)N4C)cc2F)CC1 [Example I-233, 4-(9-cyclopentyl-7,7-difluoro-5-methyl-6-oxo-6,7,8,9-tetrahydro-5H-pyrimido[4,5-b][1,4]diazepin-2-ylamino)-2,5-difluoro-N-(1-methyl-piperidin-4-yl)-benzamide]
21 | 1 to 50 | CCN1CCC(NC(=O)c2cc(F)c(Nc3ncc4c(n3)N(C3CCCC3)CC(F)(F)C(=O)N4C)cc2F)CC1 [Example I-234, 4-(9-cyclopentyl-7,7-difluoro-5-methyl-6-oxo-6,7,8,9-tetrahydro-5H-pyrimido[4,5-b][1,4]diazepin-2-ylamino)-N-(1-ethyl-piperidin-4-yl)-2,5-difluoro-benzamide]
22 | 1 to 50 | CN1C(=O)C(F)(F)CN(C2CCCC2)c2nc(Nc3cc(F)c(C(=O)NC4CCOCC4)cc3F)ncc21 [Example I-235, 4-(9-cyclopentyl-7,7-difluoro-5-methyl-6-oxo-6,7,8,9-tetrahydro-5H-pyrimido[4,5-b][1,4]diazepin-2-ylamino)-2,5-difluoro-N-(tetrahydro-pyran-4-yl)-benzamide]
23 | 1 to 50 | CN(C)CCNC(=O)c1cc(F)c(Nc2ncc3c(n2)N(C2CCCC2)CC(F)(F)C(=O)N3C)cc1F [Example I-236, 4-(9-cyclopentyl-7,7-difluoro-5-methyl-6-oxo-6,7,8,9-tetrahydro-5H-pyrimido[4,5-b][1,4]diazepin-2-ylamino)-N-(2-dimethylamino-ethyl)-2,5-difluoro-benzamide]
24 | 1 to 50 | CN(C)CCCNC(=O)c1cc(F)c(Nc2ncc3c(n2)N(C2CCCC2)CC(F)(F)C(=O)N3C)cc1F [Example I-237, 4-(9-cyclopentyl-7,7-difluoro-5-methyl-6-oxo-6,7,8,9-tetrahydro-5H-pyrimido[4,5-b][1,4]diazepin-2-ylamino)-N-(3-dimethylamino-propyl)-2,5-difluoro-benzamide]
25 | 1 to 50 | CNC(=O)c1cc(F)c(Nc2ncc3c(n2)N(C2CCCC2)CC(F)(F)C(=O)N3C)cc1F [Example I-238, 4-(9-cyclopentyl-7,7-difluoro-5-methyl-6-oxo-6,7,8,9-tetrahydro-5H-pyrimido[4,5-b][1,4]diazepin-2-ylamino)-2,5-difluoro-N-methyl-benzamide]
26 | 1 to 50 | CN1C(=O)C(F)(F)CN(C2CCCC2)c2nc(Nc3cc(F)c(C(=O)NC4CCNCC4)cc3F)ncc21 [Example I-240, 4-(9-cyclopentyl-7,7-difluoro-5-methyl-6-oxo-6,7,8,9-tetrahydro-5H-pyrimido[4,5-b][1,4]diazepin-2-ylamino)-2,5-difluoro-N-piperidin-4-yl-benzamide]
27 | 1 to 50 | CN1C(=O)C(F)(F)CN(C2CCCC2)c2nc(Nc3cc(F)c(C(N)=O)cc3F)ncc21 [Example I-241, 4-(9-cyclopentyl-7,7-difluoro-5-methyl-6-oxo-6,7,8,9-tetrahydro-5H-pyrimido[4,5-b][1,4]diazepin-2-ylamino)-2,5-difluoro-benzamide]
28 | 1 to 50 | CNC(=O)c1ccc(Nc2ncc3c(n2)N(C2CCCC2)CC(F)(F)C(=O)N3C)c(F)c1F [Example I-245]

Reference: US8003785B2 (Takeda Pharmaceutical Company Limited, priority 2008, dated 2011)
